Source: publication PMC11035632, “Discovery of gefitinib-1,2,3-triazole derivatives against lung cancer via inducing apoptosis and inhibiting the colony formation” (Scientific Reports, 2024)

Key:
Type in all cases: cell-based
NCI-H1299 cells = test: CCK-8 assay for cell proliferation and cytotoxicity, NCI-H1299; settings: Homo sapiens, CCK-8, 48 h
Experimental: (§1) Three types of lung cells were seeded into 96-well plate at a density of 5 × 10^3 cells per well at logarithmic growth phase and cultured in 37 °C. […] After that, cell viability was determined according to the instruction of the CCK-8 assay. Next, 10 μL of CCK-8 solution was added to each well of the plate and incubate the plate for 1–4 h in the incubator. The absorbance was measured at 450 nm using a microplate reader (Bio-Tek). The percentage of viable cells was measured using the following formula where three independent experiments were performed: [(A450 sample − A450blank)/(A450 control − A450blank)] × 100%.

A549 cells = test: CCK-8 assay for cell proliferation and cytotoxicity, A549; settings: Homo sapiens, CCK-8, 48 h
Experimental: A549 cells were cultured in a humidified incubator at 37 °C with 5% CO2 in Ham’s F-12 K (PM150910, Procell) supplemented with 10% FBS and 1% Penicillin Streptomycin.
as §1

NCI-H1437 cells = test: CCK-8 assay for cell proliferation and cytotoxicity, NCI-H1437; settings: Homo sapiens, CCK-8, 48 h, read-out: IC50 1437
Experimental: as §1

In the case of `COc1cc2ncnc(Nc3cccc(-c4cn(Cc5ccc(Cl)cc5)nn4)c3)c2cc1OCCCN1CCOCC1` [Compound 7k], the IC50 (NCI-H1299 cells) is reported as 6.9 ± 0.23 µM, the IC50 (A549 cells) is reported as 4.91 ± 0.52 µM and the IC50 (NCI-H1437 cells) is reported as 2.9 ± 0.23 µM.
`COc1cc2ncnc(Nc3cccc(-c4cn(Cc5ccccc5C)nn4)c3)c2cc1OCCCN1CCOCC1` [Compound 7l] gave an IC50 (NCI-H1299 cells) of 4.92 ± 0.49 µM, an IC50 (A549 cells) of 6.59 ± 0.2 µM and an IC50 (NCI-H1437 cells) of 0.84 ± 0.1 µM.
For `COc1cc2ncnc(Nc3cccc(-c4cn(Cc5cc(C)cc(C)c5)nn4)c3)c2cc1OCCCN1CCOCC1` [Compound 7m], the IC50 (NCI-H1299 cells) was 4.48 ± 0.41 µM, the IC50 (A549 cells) was 6.54 ± 0.21 µM and the IC50 (NCI-H1437 cells) was 3.72 ± 0.17 µM.
With `COc1cc2ncnc(Nc3cccc(-c4cn(Cc5cc(F)ccc5C#N)nn4)c3)c2cc1OCCCN1CCOCC1` [Compound 7n] the IC50 (NCI-H1299 cells) was 6.02 ± 0.24 µM, the IC50 (A549 cells) was 3.78 ± 0.03 µM and the IC50 (NCI-H1437 cells) was 4.67 ± 0.28 µM.
Work on `COc1cc(Cn2cc(-c3cccc(Nc4ncnc5cc(OC)c(OCCCN6CCOCC6)cc45)c3)nn2)cc(OC)c1` [Compound 7o] yielded an IC50 (NCI-H1299 cells) of 6.78 ± 0.41 µM, an IC50 (A549 cells) of 12 ± 0.15 µM and an IC50 (NCI-H1437 cells) of 5.21 ± 0.13 µM.
For `COc1cc2ncnc(Nc3cccc(-c4cn(Cc5cccc(I)c5)nn4)c3)c2cc1OCCCN1CCOCC1` [Compound 7p], the IC50 (NCI-H1299 cells) was 5.04 ± 0.33 µM, the IC50 (A549 cells) was 8.5 ± 0.34 µM and the IC50 (NCI-H1437 cells) was 4.93 ± 0.14 µM.
`COc1cc2ncnc(Nc3cccc(-c4cn(-c5ccccc5F)nn4)c3)c2cc1OCCCN1CCOCC1` [Compound 7q] showed an IC50 (NCI-H1299 cells) of 7.68 ± 0.11 µM, an IC50 (A549 cells) of 9.03 ± 0.15 µM and an IC50 (NCI-H1437 cells) of 7.21 ± 0.1 µM.
`COc1cccc(-n2cc(-c3cccc(Nc4ncnc5cc(OC)c(OCCCN6CCOCC6)cc45)c3)nn2)c1` [Compound 7r] was tested, and the IC50 (NCI-H1299 cells) was 9.35 ± 0.31 µM, the IC50 (A549 cells) was 12.9 ± 0.25 µM and the IC50 (NCI-H1437 cells) was 6.21 ± 0.23 µM.
For `COc1cc2ncnc(Nc3cccc(-c4cn(-c5cccc([N+](=O)[O-])c5)nn4)c3)c2cc1OCCCN1CCOCC1` [Compound 7s], the IC50 (NCI-H1299 cells) was 9.68 ± 0.21 µM, the IC50 (A549 cells) was 11 ± 0.25 µM and the IC50 (NCI-H1437 cells) was 8.21 ± 0.13 µM.
`COc1cc2ncnc(Nc3cccc(-c4cn(-c5ccc([N+](=O)[O-])cc5OC)nn4)c3)c2cc1OCCCN1CCOCC1` [Compound 7t] was tested, and the IC50 (NCI-H1299 cells) was 13 ± 0.23 µM, the IC50 (A549 cells) was 13.5 ± 0.33 µM and the IC50 (NCI-H1437 cells) was 14.93 ± 0.14 µM.
